Source: patent US11117898B2, “Pyrazolo-heteroaryl derivative, preparation method and medical use thereof” (Jiangsu Hengrui Medicine Co., Ltd., priority 2016, dated 2021)

How the values were obtained:
PBMC = assay: Stimulation of the secretion of IFN-α from peripheral blood mononuclear cells (PBMC); type: cell-based, human; details: minimal effective concentration: lowest concentration giving cytokine level at least 3 times the minimum detection limit; 24 hours incubation
Experimental: The ability of the compounds of the present invention to stimulate the secretion of IFN-α from PBMC was determined by the following experimental method:
The compound was diluted with pure DMSO to a maximum concentration of 5 mM, and a total of 9 points were obtained by a 4-fold gradient dilution. 4 μl of the compound were then added to 196 μl of RMPI 1640 medium containing 10% FBS and mixed well. 50 μl of the mixture were taken from each well and added to a new 96-well plate.
All reagents were equilibrated to room temperature. 60 ml of blood and PBS+2% FBS were added to a 250 ml culture flask, gently pipetted, mixed well and diluted. 15 ml of lymphocyte separation solution Ficoll-Paque PREMIUM and then 30 ml of diluted blood were added to a 50 ml PBMC centrifuge tube SepMate™-50. The mixture was centrifuged at 1200 g for 10 minutes at room temperature. The supernatant was taken and then centrifuged at 300 g for 8 minutes. The cells were re-suspended in the RMPI 1640 medium containing 10% FBS and counted, and the number of PBMCs was adjusted to 3.33×10^6 cells/ml. 150 μl of the cell solution were added to the plate added with the compound, and incubated in an incubator at 37° C., in 5.0% CO2 for 24 hours.
The cell culture plate was placed in a centrifuge, and centrifuged at 1200 rpm for 10 minutes at room temperature. 150 μl of the supernatant were taken from each well. The reagents in the human IFN-α kit were first equilibrated to normal temperature. The anti-IFN-α-Eu^3+-Cryptate conjugate and the anti-IFN-α-d2-conjugate were formulated in the dark according to the kit instructions, and both of them were mixed well with the conjugate buffer at a ratio of 1:40. 16 μl of the supernatant obtained by centrifugation were then added to each well. 2 μl of anti-IFN-α-Eu^3+-Cryptate conjugate and anti-IFN-α-d2-conjugate formulated just now were then added to each well. The plate was shaken and mixed well, and incubated in the dark at room temperature for 3 hours.
The PHERAStar was read in the HTRF mode. The lowest compound concentration that stimulated cytokine levels of at least 3 times higher than the minimum detection limit was defined as the minimal effective concentration (MEC) value of the compound in the cytokine stimulation test.
The ability of the compounds of the present invention to stimulate the secretion of IFN-α from PBMC was determined by the above test, and the obtained MEC values are shown in Table 3.

human TLR7 = human TLR7 (Homo sapiens (Human), UniProt Q9NYK1); assay: Agonistic activity on human TLR7 in HEK-Blue hTLR7 stably transfected cells; type: cell-based; details: for EC50: OD 620 nm
Sequence of human TLR7 (Q9NYK1 27-1049): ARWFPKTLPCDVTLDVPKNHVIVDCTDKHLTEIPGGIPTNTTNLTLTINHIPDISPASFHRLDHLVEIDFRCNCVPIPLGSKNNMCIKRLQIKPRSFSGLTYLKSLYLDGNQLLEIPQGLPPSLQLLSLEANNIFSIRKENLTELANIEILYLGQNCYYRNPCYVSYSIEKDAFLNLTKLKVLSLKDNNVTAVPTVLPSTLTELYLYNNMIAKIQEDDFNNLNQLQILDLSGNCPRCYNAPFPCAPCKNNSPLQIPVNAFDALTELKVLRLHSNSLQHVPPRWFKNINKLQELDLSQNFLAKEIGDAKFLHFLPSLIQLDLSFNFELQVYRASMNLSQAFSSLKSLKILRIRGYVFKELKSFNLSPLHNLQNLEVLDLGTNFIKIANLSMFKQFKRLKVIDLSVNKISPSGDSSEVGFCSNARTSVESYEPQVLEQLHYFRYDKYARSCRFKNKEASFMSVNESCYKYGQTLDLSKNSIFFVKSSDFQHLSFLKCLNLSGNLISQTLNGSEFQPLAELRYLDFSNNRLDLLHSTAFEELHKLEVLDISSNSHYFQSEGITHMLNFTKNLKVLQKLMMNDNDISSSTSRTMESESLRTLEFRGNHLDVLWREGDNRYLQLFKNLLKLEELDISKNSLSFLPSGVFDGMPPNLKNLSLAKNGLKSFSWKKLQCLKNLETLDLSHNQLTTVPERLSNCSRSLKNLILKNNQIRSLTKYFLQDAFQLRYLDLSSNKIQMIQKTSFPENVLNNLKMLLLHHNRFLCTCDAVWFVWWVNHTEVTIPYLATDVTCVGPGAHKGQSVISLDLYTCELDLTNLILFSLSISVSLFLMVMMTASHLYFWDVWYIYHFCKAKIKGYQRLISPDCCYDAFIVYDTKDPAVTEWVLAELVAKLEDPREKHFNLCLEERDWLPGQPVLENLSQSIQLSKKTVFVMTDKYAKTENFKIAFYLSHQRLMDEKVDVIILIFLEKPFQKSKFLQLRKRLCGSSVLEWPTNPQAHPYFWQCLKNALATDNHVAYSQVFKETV
Experimental: The activation effect of the compounds of the present invention on the hTLR7 protein expressed by the HEK-Blue™ hTLR7 stably transfected cells was determined by the following experimental method:
A bag of HEK-Blue detection dry powder was dissolved in 50 ml of water free of endotoxin, and the solution was then placed in an incubator at 37° C. for 10 minutes followed by sterile filtration to prepare a HEK-Blue detection medium. The compound was firstly formulated into a 20 mM stock solution, then diluted with pure DMSO to a maximum concentration of 6×10^6 nM, and a total of 10 points were obtained by a 3-fold gradient dilution.
The above formulated compound was firstly diluted 20-fold with the medium, then 20 μl of the diluted compound were added to each well. The supernate was removed from the HEK-Blue™ hTLR7 cells, to which 2-5 ml of pre-warmed PBS were then added. The cells were placed in an incubator for 1-2 minutes, gently pipetted, and counted by trypan blue staining. The cells were re-suspended in the HEK-Blue detection medium to adjust the concentration to 2.2×10^5 cells/ml. 180 μl of cells were added to the above 96-well plate already added with 20 μl of the compounds, and incubated at 37° C. for 6-16 hours.
The activation effect of the compounds of the present invention on human TLR7 can be determined by the above test, and the obtained EC50 values are shown in Table 1.

CYP3A4 [1] = target: T1, CYP3A4 (Homo sapiens (Human), UniProt P08684); assay: Inhibition of the testosterone metabolite site of CYP3A4 in human liver microsomes; type: in vitro ADME; details: probe substrate testosterone
T1 sequence (P08684 whole entry): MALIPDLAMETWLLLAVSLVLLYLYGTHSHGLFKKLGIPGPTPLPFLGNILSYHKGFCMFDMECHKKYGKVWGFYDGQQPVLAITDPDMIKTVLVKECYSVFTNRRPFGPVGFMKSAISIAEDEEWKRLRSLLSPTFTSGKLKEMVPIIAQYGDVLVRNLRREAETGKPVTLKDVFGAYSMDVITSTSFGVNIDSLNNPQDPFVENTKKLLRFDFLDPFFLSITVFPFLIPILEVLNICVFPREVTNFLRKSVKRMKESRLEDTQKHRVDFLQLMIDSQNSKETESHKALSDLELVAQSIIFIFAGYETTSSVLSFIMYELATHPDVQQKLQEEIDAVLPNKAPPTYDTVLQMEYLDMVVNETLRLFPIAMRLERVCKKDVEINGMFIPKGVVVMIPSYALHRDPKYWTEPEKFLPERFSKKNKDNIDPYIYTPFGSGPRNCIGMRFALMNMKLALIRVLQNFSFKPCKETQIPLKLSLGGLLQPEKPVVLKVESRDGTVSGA
Experimental: The effect of the compounds of the present invention on the enzyme activity of testosterone metabolite site of CYP3A4 in human liver microsomes was determined by the following experimental method:
(§1) 100 mM PBS buffer was formulated, which was then used to formulate 2.5 mg/ml microsome solution and 5 mM NADPH solution. The 5× concentration of the compound working solution was diluted with PBS gradient (150, 50, 15, 5, 1.5, 0.15, 0.015, 0 μM). The 5× concentration of ketoconazole working solution was diluted with PBS gradient (150, 50, 15, 5, 1.5, 0.15, 0.015, 0 μM). Dextromethorphan working solution was diluted with PBS to a concentration of 50 μM.
(§2) 20 μl of 2.5 mg/ml microsome solution, 20 μl of 50 μM testosterone working solution, 20 μl of MgCl2 solution and 20 μl of the compound working solution (150, 50, 15, 5, 1.5, 0.15, 0.015, 0 μM, different reaction systems for each concentration) were taken respectively and mixed well. For the positive control group, the compound was replaced with the same concentration of ketoconazole. The mixture together with 5 mM NADPH solution were pre-incubated at 37° C. for 5 minutes. After 5 minutes, 20 μl of NADPH were added to each well, the reaction was started and incubated for 30 minutes. All the incubated samples were present in duplicate. After 30 minutes, 250 μl of acetonitrile containing internal standard were added to all samples, mixed well, shaken at 800 rpm for 10 minutes, and then centrifuged at 3700 rpm for 10 minutes. 80 μl of the supernatant were taken and analyzed by LC-MS/MS.
The data were calculated by Graphpad Prism to obtain the IC50 values of the compounds on the testosterone metabolite site of CYP3A4.

CYP3A4 [2] = target: T1, CYP3A4; assay: Inhibition of the midazolam metabolite site of CYP3A4 in human liver microsomes; type: in vitro ADME; details: probe substrate midazolam
Experimental: The effect of the compounds of the present invention on the enzyme activity of midazolam metabolite site of CYP3A4 in human liver microsomes was determined by the following experimental method:
as §1, §2
The data were calculated by Graphpad Prism to obtain the IC50 values of the compounds on the midazolam metabolite site of CYP3A4.

| Compound | MEC to stimulate the secretion of IFN-α from PBMC (PBMC) [nM] | Emax (human TLR7) [%] | EC50 (human TLR7) [µM] | IC50 (CYP3A4 [1]) [µM] | IC50 (CYP3A4 [2]) [µM] |
| --- | --- | --- | --- | --- | --- |
| COCCOc1nc(N)c2cnn(Cc3ccc(CN4CCCC4)cc3)c2n1 [Example 7, 6-(2-Methoxyethoxy)-1-(4-(pyrrolidin-1-ylmethyl)benzyl)-1H-pyrazolo[3,4-d]pyrimidin-4-amine] | 89 | 95 | 0.18 | > 30 | > 30 |
| CCCCOc1nc(N)c2cnn(Cc3ccc(CN4CCC4)cc3)c2n1 [Example 2, 1-(4-(Azetidin-1-ylmethyl)benzyl)-6-butoxy-1H-pyrazolo[3,4-d]pyrimidin-4-amine] | 23 | 91 | 0.064 | 19 | 10 |
| CCCCOc1nc(N)c2cnn(Cc3ccc(CN4CCCCC4)cc3)c2n1 [Example 3, 6-Butoxy-1-(4-(piperidin-1-ylmethyl)benzyl)-1H-pyrazolo[3,4-d]pyrimidin-4-amine] | 20 | 91 | 0.077 | 3 | 7 |
| CCCCOc1nc(N)c2cnn(Cc3cccc(CN4CCCC4)c3)c2n1 [Example 4, 6-Butoxy-1-(3-(pyrrolidin-1-ylmethyl)benzyl)-1H-pyrazolo[3,4-d]pyrimidin-4-amine] | 100 | 88 | 0.166 | 6 | 11 |
